Test results as given in patent US20260308149A1, “NOVEL CARBOXAMIDE DERIVATIVES” (ANGELINI PHARMA S.P.A., priority 2023, published 2026).

Biological target: T1, human Kv7.2 (Homo sapiens, UniProt O43526)
T1 construct: expressed in transfected cells
Assay: activation (potentiation) of Kv7.2 current, SyncroPatch 384 electrophysiology in CHO cells stably expressing human Kv7.2
Type: cell-based
Conditions: human Kv7.2 in CHO cells; in presence of 5.6 μM zinc pyrithione; % activation relative to 30 μM ML-213
Procedure: The potency of Kv7 potentiators was determined using the SyncroPatch 384 (Nanion) high throughput electrophysiology platform.
CHO cells stably expressing either human Kv7.2, Kv7.4 or Kv7.5/7.3 under a constitutive CMV promoter were used for these studies. Cells were maintained in F12 Hams+1 mM L-glutamine (Hyclone) supplemented with 10% FBS (Sigma), 0.3×NEAA (Non-essential Gamino-acids) and 400 ug/ml G418 at 37° C. in 5% CO2. Cells were cultured in T-225 flasks (Nunc) for 2-3 days to reach 85-95% confluence prior to electrophysiological recording.
Earle's balanced salt solution (in mM): 135 NaCl, 5.4 KCl, 5 Glucose, 2 CaCl2), 1 MgCl2, 5 HEPES, pH 7.4. Seal enhancer solution (in mM): 90 NaCl, 3 KCl, 35 CaCl2), 10 MgCl2, 10 HEPES, pH 7.4. Extracellular recording solution (in mM): 71 NaCl, 70 NMDG, 13 KCl. 5 Glucose, 2 CaCl2, 1 MgCl2, 10 HEPES, pH 7.4. Intracellular recording solution (in mM): 130 KF, 20 KCl, 4 EGTA, 10 HEPES, 2 EDTA, 0.01 Escin, pH 7.2.
Cells were harvested for electrophysiological recording upon reaching appropriate confluence. Cells were first washed in DPBS (Hyclone, Cat #SH30028.03) and then 2 ml of Accutase (MP Biomedicals #1000449) was added at 28° C. until ~90% of cells were suspended. F12 HAM's media+1 mM L-glutamine (Hyclone, SH30026.02) was then added to the flask to dilute the accutase. Cells were then triturated until a single cell suspension was achieved, a cell count was performed, and cells were centrifuged for 2 min. at 1,000 rpm. Media was then aspirated, and cells were resuspended in Earle's balanced salt solution to a concentration of 0.75×10^6 cells/ml and allowed to recover for 25 min at 10° C.
At the beginning of each assay, 20 μl of cell suspension was dispensed into each well of a multi-hole 384-well SyncroPatch chip by the onboard pipettor. Cell sealing was initiated, and seal enhancer solution was added to facilitate seal formation. Upon completion of sealing, cells were washed 3 times with extracellular recording solution and the assay voltage protocol was started. Human Kv7.2, Kv7.4 or Kv7.5/7.3 channels were evaluated using a voltage protocol in which cells were voltage-clamped at a holding potential of −60 mV. Potassium currents were continuously activated with a series of three voltage steps to −30 mV for 3 seconds, 40 mV for 1 second and −90 mV for 4 seconds with 12 seconds between successive voltage sweeps. Potassium currents were measured from the −90 mV repolarizing step. Baseline current was assessed for 3.5 minutes prior to the addition of 5.6 μM zinc pyrithione (1 μM for Kv7.4). Kv7.2, Kv7.4 or Kv7.5/7.3 current in the presence of zinc pyrithione was acquired over five minutes to allow channels to reach steady state activity prior to addition of test agents. Channel activity was monitored for three minutes preceding the addition of 30 μM ML-213 (3 minutes) to achieve maximum activation. 150 mM TEA with 10 μM XE-991 was applied for 2 minutes to measure the leak current during maximum inhibition of Kv7.2, Kv7.4 or Kv7.5/7.3 channels.
Data were collected on the SyncroPatch platform using PatchControl software (Nanion) and processed and analyzed using DataControl Software (Nanion). Percent activation was calculated from potassium current as follows: The average current for the 5 sweeps in the presence of zinc pyrithione immediately preceding test agent addition was taken as the ‘control’ data. Likewise, the average potassium current in the presence of test agents 5 sweeps immediately preceding addition of 30 μM ML-213 was determined for ‘drug’ data. The average potassium current 5 sweeps immediately prior to addition of 150 mM TEA+10 μM XE-991 was determined for ‘max activation’ data while average currents from 5 sweeps immediately following addition of TEA was determined for ‘max inhibition’ data. Percent activation for each of the 384-wells of a sealchip was calculated as ((‘drug’−‘max inhibition’)/(‘max activation’−‘max inhibition’))*100 with Pipeline Pilot (Accelrys). […]

T1 sequence (O43526 whole entry): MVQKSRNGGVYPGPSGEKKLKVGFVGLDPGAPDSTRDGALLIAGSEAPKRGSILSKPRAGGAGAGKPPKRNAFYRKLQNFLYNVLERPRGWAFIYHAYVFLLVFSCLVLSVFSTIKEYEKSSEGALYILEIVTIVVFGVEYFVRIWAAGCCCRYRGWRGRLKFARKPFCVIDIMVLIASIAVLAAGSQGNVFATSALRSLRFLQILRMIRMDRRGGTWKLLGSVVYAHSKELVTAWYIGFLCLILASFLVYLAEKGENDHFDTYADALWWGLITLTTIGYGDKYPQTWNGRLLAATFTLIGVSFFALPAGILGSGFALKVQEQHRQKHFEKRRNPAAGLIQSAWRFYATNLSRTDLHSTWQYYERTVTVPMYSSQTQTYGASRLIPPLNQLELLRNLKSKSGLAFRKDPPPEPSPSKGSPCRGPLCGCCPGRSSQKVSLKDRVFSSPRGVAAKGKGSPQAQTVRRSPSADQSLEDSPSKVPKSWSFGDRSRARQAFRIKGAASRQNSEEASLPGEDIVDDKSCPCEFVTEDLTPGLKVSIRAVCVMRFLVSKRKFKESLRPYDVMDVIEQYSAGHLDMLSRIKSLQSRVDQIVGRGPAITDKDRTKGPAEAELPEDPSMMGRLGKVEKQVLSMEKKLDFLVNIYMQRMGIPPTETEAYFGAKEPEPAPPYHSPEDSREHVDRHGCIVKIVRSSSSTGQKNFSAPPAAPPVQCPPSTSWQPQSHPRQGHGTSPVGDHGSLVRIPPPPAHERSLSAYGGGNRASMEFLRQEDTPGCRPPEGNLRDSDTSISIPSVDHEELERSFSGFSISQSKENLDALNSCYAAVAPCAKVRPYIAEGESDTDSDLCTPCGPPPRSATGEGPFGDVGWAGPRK

| Structure (SMILES) | EC50 |
| --- | --- |
| N#Cc1cccc([C@]2(CNC(=O)CC3CCCCC3)CCO2)c1 [Example 93, N-[[(2S)-2-(3-cyanophenyl)oxetan-2-yl]methyl]-2-cyclohexyl-acetamide] | 5430 nM |
| COC(C)(CNC(=O)Nc1cccc(C)c1)c1cccc(Cl)c1 (stereo not shown) [Example 6, 1-[2-(3-chlorophenyl)-2-methoxy-propyl]-3-(m-tolyl)urea] | 2410 nM |
| N#Cc1cccc(C2(CNC(=O)CC3CCCCC3)CCC(=O)O2)c1 (stereo not shown) [Example 90, N-[[2-(3-cyanophenyl)-5-oxo-tetrahydrofuran-2-yl]methyl]-2-cyclohexyl-acetamide] | 960 nM |
| O=C(NC(CO)C1(c2cccc(Cl)c2)CC1)[C@H]1C[C@@H]1c1ccccc1 (stereo partly drawn) [Example 86, (1S,2S)—N-[1-[1-(3-chlorophenyl)cyclopropyl]-2-hydroxy-ethyl]-2-phenyl-cyclopropanecarboxamide] | 5620 nM |
| O=C(NC[C@@]1(c2cccc(Cl)c2)CCO1)[C@H]1C[C@@H]1c1ccccc1 [Example 40, (1S,2S)-N-[[(2S)-2-(3-chlorophenyl)oxetan-2-yl]methyl]-2-phenyl-cyclopropanecarboxamide] | 110 nM |
| N#Cc1cccc([C@@]2(CNC(=O)C3CC4CCC3CC4)CCO2)c1 (stereo partly drawn) [Example 98, N-[[(2R)-2-(3-cyanophenyl)oxetan-2-yl]methyl]bicyclo[2.2.2]octane-2-carboxamide] | 6650 nM |
| O=C(NCC1(c2cccc(OC(F)F)n2)CCO1)C1CC12CCCCC2 (stereo not shown) [Example 123, N-[[2-[6-(difluoromethoxy)-2-pyridyl]oxetan-2-yl]methyl]spiro[2.5]octane-2-carboxamide] | 170 nM |
| CO[C@@](C)(CNC(=O)C1CC12CCC(F)(F)CC2)c1cccc(Cl)c1 (stereo partly drawn) [Example 83, N-[(2R)-2-(3-chlorophenyl)-2-methoxy-propyl]-6,6-difluoro-spiro[2.5]octane-2-carboxamide] | 380 nM |
| N#Cc1cc(C2(CNC(=O)[C@H]3C[C@@H]3c3ccccc3)CCO2)ccc1F (stereo partly drawn) [Example 125, (1S,2S)—N-[[2-(3-cyano-4-fluoro-phenyl)oxetan-2-yl]methyl]-2-phenyl-cyclopropanecarboxamide] | 2190 nM |
| CO[C@@](C)(CNC(=O)C1CC12CCOCC2)c1cccc(Cl)c1 (stereo partly drawn) [Example 84, N-[(2R)-2-(3-chlorophenyl)-2-methoxy-propyl]-6-oxaspiro[2.5]octane-2-carboxamide] | 130 nM |
| N#Cc1cccc([C@]2(CNC(=O)[C@H]3C[C@@H]3C3CCC3)CCO2)c1 (mixture of isomers) [Example 101, (1SR,2RS)—N-[[(2S)-2-(3-cyanophenyl)oxetan-2-yl]methyl]-2-cyclobutyl-cyclopropanecarboxamide] | 260 nM |
| N#CCOC(CNC(=O)CC1CCCC1)c1cccc(Cl)c1 (stereo not shown) [Example 73, N-[2-(3-chlorophenyl)-2-(cyanomethoxy)ethyl]-2-cyclopentyl-acetamide] | 2000 nM |
| CC(C#N)(CNC(=O)[C@H]1C[C@@H]1c1ccccc1)c1cccc(Cl)c1 (mixture of isomers) [Example 37, rac-(1S,2S)-N-[2-(3-chlorophenyl)-2-cyano-propyl]-2-phenyl-cyclopropanecarboxamide] | 1320 nM |
| N#Cc1cccc([C@]2(CNC(=O)C(F)C3CC4CCC3C4)CCO2)c1 (stereo partly drawn) [Example 131, N-[[(2S)-2-(3-cyanophenyl)oxetan-2-yl]methyl]-2-fluoro-2-norbornan-2-yl-acetamide] | 5950 nM |
| COc1cccc(NC(=O)NCC(C)(OC)c2cccc(Cl)c2)c1 (stereo not shown) [Example 5, 1-[2-(3-chlorophenyl)-2-methoxy-propyl]-3-(3-methoxyphenyl)urea] | 1040 nM |
| CCOc1cccc(NC(=O)NCC(C)(OC)c2cccc(Cl)c2)c1 (stereo not shown) [Example 14, 1-[2-(3-chlorophenyl)-2-methoxy-propyl]-3-(3-ethoxyphenyl)urea] | 600 nM |

| Structure (SMILES) | EC50 |
| --- | --- |
| O=C(NC[C@]1(c2cccc(Cl)c2)OCC1(F)F)[C@H]1C[C@@H]1c1ccccc1 (stereo in doubt) [Example 42, (1S,2S)-N-[[(2S)-2-(3-chlorophenyl)-3,3-difluoro-oxetan-2-yl]methyl]-2-phenyl-cyclopropanecarboxamide] | 630 nM |
| O=C(NCC1(c2cccc(Cl)c2)CCO1)NC1CC2CCC1C2 (racemic) [Example 54, 1-[[2-(3-chlorophenyl)oxetan-2-yl]methyl]-3-[rac-(1S,2S,4R)-norbornan-2-yl]urea] | 190 nM |
| O=C(NCc1cccc(Cl)c1)NCC1(c2cccc(Cl)c2)CCO1 (stereo not shown) [Example 62, 1-[(3-chlorophenyl)methyl]-3-[[2-(3-chlorophenyl)oxetan-2-yl]methyl]urea] | 420 nM |
| O=C(NCC1CCCC1)NCC1(c2cccc(Cl)c2)COC1 [Example 72, 1-[[3-(3-chlorophenyl)oxetan-3-yl]methyl]-3-(cyclopentylmethyl)urea] | 870 nM |
| COC(C)(CNC(=O)C1CC1c1ccccc1F)c1cccc(Cl)c1 (stereo not shown) [Example 43, N-[2-(3-chlorophenyl)-2-methoxy-propyl]-2-(2-fluorophenyl)cyclopropanecarbox-amide] | 110 nM |
| COc1cc(C(C)(CNC(=O)[C@H]2C[C@@H]2c2ccccc2)OC)ccn1 (mixture of isomers) [Example 52, (1S,2S)-N-[(2RS)-2-methoxy-2-(2-methoxy-4-pyridyl)propyl]-2-phenyl-cyclopropanecarboxamide] | 9420 nM |
| N#Cc1cccc([C@]2(CNC(=O)C(F)CC3CCCC3)CCO2)c1 (stereo partly drawn) [Example 103, N-[[(2S)-2-(3-cyanophenyl)oxetan-2-yl]methyl]-3-cyclopentyl-2-fluoro-propanamide] | 6140 nM |
| N#Cc1cccc([C@]2(CNC(=O)[C@H]3C[C@@H]3c3ccccc3)CCO2)c1 [Example 49, (1S,2S)-N-[[(2S)-2-(3-cyanophenyl)oxetan-2-yl]methyl]-2-phenyl-cyclopropanecarboxamide] | 40 nM |
| O=C(CC1CCCCC1)NCC1(c2cccc(Cl)c2)CCO1 (stereo not shown) [Example 57, N-[[2-(3-chlorophenyl)oxetan-2-yl]methyl]-2-cyclohexyl-acetamide] | 430 nM |
| N#Cc1cccc([C@]2(CNC(=O)C3C(F)(F)C34CCC4)CCO2)c1 (stereo partly drawn) [Example 96, N-[[(2S)-2-(3-cyanophenyl)oxetan-2-yl]methyl]-2,2-difluoro-spiro[2.3]hexane-1-carboxamide] | 8540 nM |
| COC(C)(CNC(=O)N[C@H]1CC2CCC1C2)c1cccc(Cl)c1 (mixture of isomers) [Example 25, 1-[2-(3-chlorophenyl)-2-methoxy-propyl]-3-[rac-(1S,2S,4R)-norbornan-2-yl]urea] | 170 nM |
| O=C(NCC(OC1CC1)c1cccc(Cl)c1)NC1CCCC1 (stereo not shown) [Example 18, 1-[2-(3-chlorophenyl)-2-(cyclopropoxy)ethyl]-3-cyclopentyl-urea] | 4580 nM |
| COC(C)(CNC(=O)NC1CC=CC1)c1cccc(Cl)c1 (stereo not shown) [Example 30, 1-[2-(3-chlorophenyl)-2-methoxy-propyl]-3-cyclopent-3-en-1-yl-urea] | 3270 nM |
| N#Cc1cccc([C@]2(CNC(=O)[C@H]3C[C@@H]3c3ccc(Br)cc3)CCO2)c1 [Example 128, (1S,2S)-2-(4-bromophenyl)-N-[[(2S)-2-(3-cyanophenyl)oxetan-2-yl]methyl]cyclopropanecarboxamide] | 470 nM |
| COC(C)(CNC(=O)NCc1cccs1)c1cccc(Cl)c1 (stereo not shown) [Example 33, 1-[2-(3-chlorophenyl)-2-methoxy-propyl]-3-(2-thienylmethyl)urea] | 1860 nM |
